Assay results published in the NIST ThermoML archive (doi:10.1016/j.jct.2017.03.006).

Assay: xn = mol fraction of the nth substance listed
Conditions: 273.15 K, Liquid, Vibrating tube method

Cc1ccc(C)c(C)c1 [1,2,4-trimethylbenzene] + CCC(C)O
mass density [kg/m3]
Conditions	x2 = 0	x2 = 0.1	x2 = 0.1989	x2 = 0.3011	x2 = 0.4002	x2 = 0.5001	x2 = 0.5997	x2 = 0.6999	x2 = 0.7999	x2 = 0.9
100 kPa	891.7	885.9	880.3	874.4	868.5	862.2	855.4	847.7	840.4	831.5
1000 kPa	892.3	886.3	880.7	874.7	868.8	862.5	855.9	848.6	840.9	832.2
2000 kPa	892.9	886.9	881.3	875.4	869.5	863.2	856.6	849.3	841.5	832.9
5000 kPa	894.6	888.8	883.2	877.3	871.4	865.2	858.5	851.3	843.5	835
10000 kPa	897.4	891.8	886.2	880.4	874.5	868.3	861.7	854.5	846.8	838.2
15000 kPa	900.2	894.6	889.1	883.3	877.4	871.3	864.7	857.6	849.9	841.4
20000 kPa	902.8	897.4	891.9	886.1	880.4	874.2	867.6	860.5	852.8	844.4
30000 kPa	908	902.7	897.3	891.6	885.8	879.7	873.3	866.2	858.6	850.1
40000 kPa	912.9	907.8	902.4	896.7	891.1	885	878.5	871.5	863.9	855.6
50000 kPa	917.5	912.6	907.2	901.6	896	890	883.6	876.6	869	860.7
60000 kPa	921.9	–	–	–	–	–	–	–	–	–
